Reference: patent US20190365776A1, “THERAPEUTIC AGENT FOR OCULAR FUNDUS DISEASE” (KYUSHU UNIVERSITY, NATIONAL UNIVERSITY CORPORATION, priority 2013, published 2019)

Experiments:
Kimba (trVEGF029) mice = experiment: Kimba (trVEGF029) mice, fluorescein fundus angiography and optical coherence tomography; assay type: in vivo; details: 0.8% solution, ocular instillation three times a day for 2 weeks
Method: The effectiveness of the compound 1 in Kimba (trVEGF029) mice known as mice transgenic for VEGF gene, which develop retinal neovascularization, was examined in the following manner.
Compound 1 solution prepared in the same manner as in Example 1: 0.8% solution (instillation volume: 20 μL)
Test animals: Kimba mice (available from Lions Eye Institute Ltd., 6 mice per group)
One-month-old Kimba mice born on the same day were given saline (control) or the 0.8% compound 1 solution by ocular instillation three times a day for 2 weeks, and were then subjected to fluorescein fundus angiography and optical coherence tomography under anesthesia for evaluation. More specifically, in fluorescein fundus angiography, each of the mice was first given tropicamide by ocular instillation to cause mydriasis and then anesthetized by intraperitoneal administration of 100 mg/kg of Ketalar and 10 mg/kg of Selactar, given 6 μL/g of a contrast agent for fluorescein fundus angiography by intraperitoneal injection, and subjected to fluorescein fundus angiography using Heidelberg Retina Angiograph (HRA, Heidelberg, Germany). […]

[1] = tested on: mice OIR (Oxygen-Induced Retinopathy) model; experiment: Mice OIR (oxygen-induced retinopathy) model, flat-mounted retina; assay type: in vivo, C57BL/6JJcl mice; details: ocular instillation 20 μL three times a day, day 12 to day 17 after birth, flat mount
Method: The effectiveness of (S)-(−)-1-(4-fluoro-5-isoquinolinesulfonyl)-2-methyl-1,4-homopiperazine (compound 1) in a mice OIR model commonly used as a model of ischemic retinopathy such as diabetic retinopathy was examined in the following manner. Compound 1 solutions: 0.4% solution, 0.8% solution (instillation volume: 20 μL) Fasudil solution: 0.4% solution (instillation volume: 20 μL) Test animals: C57BL/6JJcl mice (sex: male, 8 to 14 mice per group) C57BL/6JJcl mice born on the same day were reared in a 75%-oxygen environment from day 7 after birth, and were then transferred to a normal indoor environment on day 12 after birth to start administration by ocular instillation. Test groups were a saline instillation group (control), a 0.4% compound 1 solution instillation group, a 0.8% compound 1 solution instillation group, and a 0.4% fasudil solution instillation group, and saline, the compound 1 solution, or the fasudil solution was administered by ocular instillation three times a day. On day 17 after birth, ischemic retinal areas (non-perfused areas) and neovascular areas were quantified for evaluation by flat-mounting or fluorescein fundus angiography. More specifically, 1 g/kg of pentobarbital (Nembutal) was administered intraperitoneally for euthanasia under deep anesthesia, and then both eyeballs were excised and fixed with 4% paraformaldehyde (PFA) at 37° C. for 1 hour, and the corneal limbus was circumferentially incised to remove the cornea and iris from the eyeball. Then, after fixation with 4% PFA at 37° C. for 1 hour, the lens, sclera, and choroid were removed, and the eye cup including the retina was isolated. Further, the retina was fixed with 4% PFA at 37° C. for 3 hours, washed with PBS three times (15 min per wash, 37° C.), dehydrated (methanol 50% 100%, 10 min per methanol treatment, 37° C.), washed with PBS three times (15 min per wash, 37° C.), and blocked with Blocking Buffer (1% BSA, 0.5% Triton-X in PBS) for 60 minutes (37° C.). Then, the retina was treated with a primary antibody (0.7% FITC-conjugates Anti-lectin Ab in PBS, 4° C., overnight) and washed with PBS three times (15 min per wash, 37° C.). Then, 4 to 6 cuts were radially made in the eye cup, and the flat-mounted retina was covered with Crystal Mount. Then, the image of the flat-mounted retina was taken with a fluorescence microscope (BZ-9000, KEYENCE Corp, Osaka, Japan), and the proportion of the non-perfused area to the entire retina and the proportion of the neovascular area to the entire retina were calculated by the following formulas in NIH image J software. The thus obtained values were converted to relative values by regarding the obtained values of the saline instillation group (control) as 100%, and statistical analysis was performed by Wilcoxon test. Non-perfused area=area of avascular region/area of entire retina Neovascular area=area of neovascular region/area of entire retina

[2] = tested on: mice CNV (Choroidal Neovascularization) model; experiment: Mice CNV (choroidal neovascularization) model, laser photocoagulation; assay type: in vivo, C57BL/6JJcl mice; details: ocular instillation three times a day, day 0 to day 7, control 109177±26399
Method: The effectiveness of the compound 1 in a mice CNV model known as a model of age-related macular degeneration or the like was examined in the following manner.
Compound 1 solutions prepared in the same manner as in Example 1: 0.4% solution, 0.8% solution (instillation volume: 20 μL)
Test animals: C57BL/6JJcl mice (6- to 10-week old, sex: male, 11 to 12 mice per group)
The preparation of a CNV model and evaluation were performed with reference to a literature (e.g., J. Leukoc. Biol. 2003; 74: 25-32, or Am. J. Pathol. 1998; 153: 1641-1646). More specifically, each of the mice was given tropicamide by ocular instillation to cause mydriasis, anesthetized by intraperitoneal administration of 100 mg/kg of Ketalar and 10 mg/kg of Selactar, and subjected to photocoagulation at 4 spots per eye. The photocoagulation was performed by krypton laser irradiation (75-μm spot size, 0.1 seconds duration, 200 mW) with a slit-lamp delivery system using a cover glass as a contact lens. Test groups were a saline instillation group (control), a 0.4% compound 1 solution instillation group, and a 0.8% compound 1 solution instillation group. […] More specifically, a spot with bleeding or tissue destruction was excluded, the CNV volume of each spot adopted was calculated by NIS-Elements AR Version 4.13, and then an average value (μm^3) per eye was calculated.

C[C@H]1CNCCCN1S(=O)(=O)c1cccc2cncc(F)c12 [compound 1, (S)-(−)-1-(4-fluoro-5-isoquinolinesulfonyl)-2-methyl-1,4-homopiperazine]
edema (fluorescein fundus angiography / optical coherence tomography images) (Kimba (trVEGF029) mice): suppression of edema is observed | average maximum retinal thickness (mean±standard error) (Kimba (trVEGF029) mice; optical coherence tomography, saline control 361.8±36.1): 256.7±35.7 μm | relative value of the neovascular area (saline instillation group = 100%) ([1]; 0.4% solution): 58.2% | relative value of the non-perfused area (saline instillation group = 100%) ([1]; 0.4% solution): 77.0% | relative value of the neovascular area (saline instillation group = 100%) ([1]; 0.8% solution): 52.7% | relative value of the non-perfused area (saline instillation group = 100%) ([1]; 0.8% solution): 58.1% | CNV volume (mean±standard error, average per eye) ([2]; 0.4% solution): 56408±9007 μm^3 | CNV volume (mean±standard error, average per eye) ([2]; 0.8% solution): 88387±33678 μm^3
